From patent publication US12479816B2, “20-HETE formation inhibitors” (UNIVERSITY OF PITTSBURGH—OF THE COMMONWEALTH SYSTEM OF …, priority 2019, dated 2025) come the findings set out here.

Series [1] addresses T1, rCYP4F2 (Homo sapiens, UniProt P78329).
T1 sequence (P78329 5-520): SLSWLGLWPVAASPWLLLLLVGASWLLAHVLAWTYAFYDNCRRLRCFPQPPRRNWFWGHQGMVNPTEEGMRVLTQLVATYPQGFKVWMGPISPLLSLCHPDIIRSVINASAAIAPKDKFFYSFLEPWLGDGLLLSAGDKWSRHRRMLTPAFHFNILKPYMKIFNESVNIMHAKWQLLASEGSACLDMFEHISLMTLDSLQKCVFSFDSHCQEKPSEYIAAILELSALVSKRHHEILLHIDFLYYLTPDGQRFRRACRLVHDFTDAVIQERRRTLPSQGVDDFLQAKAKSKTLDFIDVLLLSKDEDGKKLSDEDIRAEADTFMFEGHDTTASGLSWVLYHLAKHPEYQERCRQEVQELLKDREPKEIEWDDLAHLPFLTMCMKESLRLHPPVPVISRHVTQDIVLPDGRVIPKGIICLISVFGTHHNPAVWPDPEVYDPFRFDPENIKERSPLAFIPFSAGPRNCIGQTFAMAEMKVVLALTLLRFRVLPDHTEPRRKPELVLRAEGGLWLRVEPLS
Description: Inhibition of 20-HETE formation at 250 or 500 nM in rCYP4F2 incubations. Type of series: biochemical. The settings on record: rCYP4F2 25 pmol/mL; for inhibition at 0.5 µM: 500 nM compound, read-out: rCYP4F2 % inh. @ 500 nM; for inhibition at 0.25 µM: 250 nM compound, read-out: rCYP4F2 % inh. @ 250 nM. In outline:
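Protein 300 μg/ml (microsomes) / 25 pmol/mL (rCYP4F2); AA 100 μM; NADPH 1 mM start; KPi 0.12 M + 5 mM MgCl2; 20 min, 37° C. Read-out: 20-HETE by UPLC-MS/MS (d6 IS), % of vehicle, n=3.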

A short description of series [2]: HLM stability determination. Type of series: in vitro ADME, human. The settings on record: HLM 500 μg/ml, 1 μM compound, NADPH, relative to 0 min. As to the method: HLM stability determinations shown in Table 3 were obtained as follows. Microsomal incubates contained HLM (500 μg/ml), test compounds (1 μM) and NADPH (1.3 mM) in a 1 ml total volume of microsomal incubation buffer (0.12 M potassium phosphate buffer containing 5 mM magnesium chloride). Reaction was started by adding NADPH to the incubates and was carried out at 37° C. in a shaking water bath for 60 min. At 0, 15, 30, 45, 60 min, a 50 μl aliquot of incubates was taken out and reaction was stopped by adding aliquot into 200 μl ice-cold acetonitrile. After centrifugation at 14000×g for 5 min, 200 μl supernatant was taken out for UPLC-MS/MS analysis as described above. Values at 0 min were used as corresponding control for test compounds. Varapamil, metoprolol, and warfarin, categorized as fast, moderate and slow metabolism, were used as positive control. Incubates without NADPH group served as negative control.

The test system of series [3] is 20-HETE formation (CYP4) in RLM. Description: IC50 determination, 20-HETE formation in RLM. Type of series: biochemical, rat. The settings on record: RLM 300 μg/ml, AA 100 μM, 12 concentrations. As for the experimental part:
Microsomal incubations contained HLM, RLM (300 μg/ml), AA (100 μM), NADPH (1 mM) and test compounds at 12 concentrations (0.1 nM-50 μM) in a 1 ml total volume in microsomal incubation buffer (0.12 M potassium phosphate buffer containing 5 mM magnesium chloride). Reaction was started by adding NADPH to the incubates and was carried out at 37° C. in a shaking water bath for 20 min. Reaction was stopped by placing tubes on ice, followed by adding 12.5 μl 20-HETE-d6 as internal standard to each sample. Microsomal incubations were extracted with 3 ml ethyl ether twice, dried down under nitrogen gas and reconstituted in 125 μl 80:20 methanol:deionized H2O for analysis. 20-HETE formation was quantified using the validated UPLC-MS/MS assay described above and normalized by vehicle group. HET0016 (250 nM) was used as positive control. Incubates without NADPH group served as the negative control. IC50 was determined by fitting the dose-response curve using Graphpad Prism nonlinear regression.

As for `COc1ccc(C2CCN(c3cn[nH]c3)CC2)cc1` [Compound 20, 4-(4-Methoxyphenyl)-1-(1H-pyrazol-4-yl)piperidine], in series [1], the inhibition at 0.5 µM is 67.7%. Moreover, the “Stability HLM % @ 30 min” value in series [2] is given as 92%.

For `c1ccc(CC2CCN(c3cn[nH]c3)CC2)cc1` [Compound 3, 4-Benzyl-1-(1H-pyrazol-4-yl)piperidine], the inhibition at 0.5 µM in series [1] is 77%. For the same molecule, the “Stability HLM % @ 30 min” value in series [2] was determined as 85%.

As to `Clc1ccc(CC2CCN(c3cn[nH]c3)CC2)cc1` [Compound 93, 4-(4-Chlorobenzyl)-1-(1H-pyrazol-4-yl)piperidine], in series [3], the IC50 was 120 nM. For the same molecule, the inhibition at 0.5 µM in series [1] amounted to 97%. The “Stability HLM % @ 30 min” value in series [2] was determined as 85%.

As to `O=C1CCCN1Cc1ccc(C2CCN(c3cn[nH]c3)CC2)cc1` [Compound 83, 1-(4-(1-(1H-Pyrazol-4-yl)piperidin-4-yl)benzyl)pyrrolidin-2-one], 720 nM corresponded to half-maximal inhibition in series [3] (IC50). The inhibition at 0.5 µM in series [1] was 96.2%. In addition, the “Stability HLM % @ 30 min” value in series [2] was determined as 91%.

On to `c1ccc(C2CCN(c3cn[nH]c3)CC2)cc1` [Compound 1, 4-Phenyl-1-(1H-pyrazol-4-yl)piperidine], for which, in series [1], the inhibition at 0.25 µM was 78.5%. In addition, the “Stability HLM % @ 30 min” value in series [2] is 100%.

For the molecule `O=C1CCCN1c1ccc(C2CCN(c3cn[nH]c3)CC2)cc1` [Compound 100, 1-(4-(1-(1H-Pyrazol-4-yl)piperidin-4-yl)phenyl)pyrrolidin-2-one], half-maximal inhibition in series [3] (IC50) was put at 570 nM. Besides, the inhibition at 0.5 µM in series [1] is 81.2%. In addition, the “Stability HLM % @ 30 min” value in series [2] is recorded as 95%.

As for `COc1ccc(C2CCN(c3ccn[nH]3)CC2)cc1` [Compound 19, 4-(4-Methoxyphenyl)-1-(1H-pyrazol-5-yl)piperidine], the inhibition at 0.5 µM in series [1] came out at 41.4%. For the same molecule, the “Stability HLM % @ 30 min” value in series [2] worked out at 89%.

As for `CC(=O)N(C)c1ccc(C2CCN(c3cn[nH]c3)CC2)cc1` [Compound 28, N-(4-(1-(1H-Pyrazol-4-yl)piperidin-4-yl)phenyl)-N-methylacetamide], the inhibition at 0.5 µM in series [1] is 58%.

For `c1ccc(C2CCN(c3ccn[nH]3)CC2)cc1` [Compound 54, 4-Phenyl-1-(1H-pyrazol-5-yl)piperidine], the inhibition at 0.25 µM in series [1] is 53.6%. Further, in series [2], the “Stability HLM % @ 30 min” value stood at 91%.

In the case of `Cc1cccc(C2CCN(c3cn[nH]c3)CC2)c1` [Compound 34, 1-(1H-Pyrazol-4-yl)-4-(m-tolyl)piperidine], the inhibition at 0.5 µM in series [1] was found to be 86%.
